Values of other authors, collected in US7968712B2, “Process for the resolution of zopiclone and intermediate compounds” (Esteve Quimica, S.A., priority 2007, dated 2011).

What was measured:
[1] = compared with racemic zopiclone
[2] = compared with racemic zopiclone; remark: listed apart in the source

| Structure (SMILES) | toxicity relative to the racemate [1] | activity relative to the racemate [2] |
| --- | --- | --- |
| CN1CCN(C(=O)O[C@H]2c3nccnc3C(=O)N2c2ccc(Cl)cn2)CC1 [dextrorotatory enantiomer, eszopiclone] | lower toxicity than that of the racemate | – |
| CN1CCN(C(=O)O[C@@H]2c3nccnc3C(=O)N2c2ccc(Cl)cn2)CC1 (single isomer, unassigned) [laevorotatory isomer] | more toxic than the racemate | almost inactive |
